Measurements reported in PubChem BioAssay (NCI).
Values joined by “and” are separate entries in the source; they are usually repeats but may differ in a detail not shown here. Identical values can stand only once.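 Exposure lasted 48 hours, with cells grown in 96-well plates and compounds tested at five concentrations. Here, GI50 denotes the concentration required for 50% inhibition of growth. TGI: total growth inhibition.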

How the values were obtained:
Test in all cases: growth of human tumour cells (NCI), 48 h
NCI-H226 lung = test system: NCI-H226 lung
K-562 leukemia = test system: K-562 leukemia
SK-MEL-5 melanoma = test system: SK-MEL-5 melanoma
UACC-62 melanoma = test system: UACC-62 melanoma
A549 NSCLC = test system: A549 NSCLC
HT29 colon = test system: HT29 colon
COLO 205 colon = test system: COLO 205 colon
HOP-92 NSCLC = test system: HOP-92 NSCLC
MDA-MB-231 breast = test system: MDA-MB-231 breast
HS 578T breast = test system: HS 578T breast

| Compound | TGI (NCI-H226 lung) | TGI (K-562 leukemia) | TGI (SK-MEL-5 melanoma) | TGI (UACC-62 melanoma) | TGI (A549 NSCLC) | TGI (HT29 colon) | TGI (COLO 205 colon) | TGI (HOP-92 NSCLC) | TGI (MDA-MB-231 breast) | TGI (HS 578T breast) | GI50 (HOP-92 NSCLC) | GI50 (K-562 leukemia) | GI50 (HT29 colon) | GI50 (COLO 205 colon) |
| --- | --- | --- | --- | --- | --- | --- | --- | --- | --- | --- | --- | --- | --- | --- |
| NC1CCC2(O)c3ccccc3C2C1 (stereo unspecified) | > 100 µM | > 100 µM | > 100 µM | > 100 µM | > 100 µM | > 100 µM | > 100 µM | – | – | – | – | – | – | – |
| CC(C)=CC1C(C(=O)OCc2cc3c(cc2Cl)OCO3)C1(C)C (stereo unspecified) | > 100 µM | > 100 µM | 34.2 µM | > 100 µM | > 100 µM | > 100 µM | – | > 100 µM | 86.6 µM | > 100 µM | – | – | – | – |
| O=C(/C=C\c1ccccc1)Oc1ccc(/C=C2\CCC/C(=C\c3ccc(OC(=O)/C=C\c4ccccc4)cc3)C2=O)cc1 | – | – | > 100 µM | > 100 µM | > 100 µM | > 100 µM | > 100 µM | > 100 µM | > 100 µM | > 100 µM | – | – | – | – |
| O=c1[nH]ncc2[nH]c3c(c12)CCc1ccccc1-3 | 40.7 µM | > 100 µM | 25 µM | – | > 100 µM | > 100 µM | 30.3 µM | 81.8 µM | > 100 µM | 59.2 µM | – | – | – | – |
| Cn1c(CO)ccc1-c1ccc(-c2ccc(CO)[se]2)[se]1 | 2.56 µM | 98.5 µM | 6.74 µM | 31.5 µM | > 100 µM | > 100 µM | 9.23 µM | – | > 67.2 µM | > 100 µM | – | – | – | – |
| CCC12CCC[C@@]13C=C[C@H](O3)C(C)(C)C2=O (stereo partly specified) | > 100 µM | > 100 µM | > 100 µM | > 100 µM | > 100 µM | > 100 µM | – | – | – | – | – | – | – | – |
| CC(=O)OC12c3ccccc3C(c3ccccc31)C1C(=O)N(N=C(C)C)C(=O)C12 (stereo unspecified) | > 100 µM | > 100 µM | > 100 µM | > 100 µM | > 100 µM | > 100 µM | > 100 µM | – | > 100 µM | > 100 µM | – | – | – | – |
| Nc1c(C(=O)O)c2ccc([N+](=O)[O-])cc2c(=O)n1-c1nc2ccccc2s1 | > 100 µM | > 100 µM | > 100 µM | > 100 µM | > 100 µM | > 100 µM | > 100 µM | – | > 100 µM | > 100 µM | – | – | – | – |
| CCOC(=O)C(Cc1ccc(N=NN(C)C)cc1)NC(=O)CC1c2ccccc2-c2ccccc21 (stereo unspecified) | > 100 µM | > 100 µM | > 100 µM | > 100 µM | > 100 µM | > 100 µM | > 100 µM | – | – | – | – | – | – | – |
| O=[N+]([O-])/C=C/c1cc(Cl)c(/C=C/[N+](=O)[O-])cc1Cl | 5.4 µM | – | 14.9 µM | 4.34 µM | 36.1 µM | 5.78 µM | 4.5 µM | 6.77 µM | – | 8.25 µM | – | – | – | – |
| CC(=O)c1c(-c2ccc(Cl)cc2)c(C#N)c(=S)n(C2OC(CO)C(O)C(O)C2O)c1C (stereo unspecified) | > 100 µM | > 100 µM | > 100 µM | 57.8 µM | > 100 µM | > 100 µM | 95.1 µM | 65.6 µM | > 100 µM | – | – | – | – | – |
| [C-]#[O+].[Cl][Sn]([Cl])[Cl].[Cl][Sn]([Cl])[Cl].[Pt].c1cnc2c(c1)ccc1cccnc12 | > 42.4 µM | > 48.3 µM | 13.4 µM | > 22.4 µM | > 100 µM | > 100 µM | > 100 µM | 51.5 µM | – | – | – | – | – | – |
| CC1CC(c2ccccc2)=Nc2ccccc2S1 (stereo unspecified) | > 100 µM | > 100 µM | > 100 µM | > 100 µM | > 100 µM | > 100 µM | > 100 µM | > 100 µM | – | – | – | – | – | – |
| COc1cccc(/C=N/[N-]C(N)=O)c1[O-].[Cu+2].[OH3+] | 31.3 µM | 45.2 µM | – | – | – | 21.3 µM | > 100 µM | 8.9 µM and 15.5 µM | – | – | 4.77 µM | 5.7 µM | 9.17 µM | 9.49 µM |
| COc1c(OC2OC(CO)C(O)C(O)C2O)cc2c(c1OC)-c1ccc(OC)c(=O)cc1C(NC(C)=O)CC2 (stereo unspecified) | > 100 µM | > 100 µM | > 100 µM | > 100 µM | > 100 µM | > 100 µM | > 100 µM | > 100 µM | – | – | – | – | – | – |
| Cc1nc(C(=Nc2ccc(Br)cc2)Nn2cnnc2)no1 | – | > 100 µM | > 100 µM | > 100 µM | > 100 µM | > 100 µM | > 100 µM | > 100 µM | > 100 µM | > 100 µM | – | – | – | – |
| O=C(O)CCCc1ccc2c(c1)C(C(=O)O)CC2 (stereo unspecified) | > 100 µM | > 100 µM | > 100 µM | > 100 µM | > 100 µM | > 100 µM | > 100 µM | – | > 100 µM | > 100 µM | – | – | – | – |
| CC(C)(NO)/C(=N\O)c1ccccc1 | > 10 µM | > 10 µM | – | – | – | > 10 µM | > 10 µM | > 10 µM | > 10 µM | – | – | – | – | – |
| COc1ccc(C(=CCC(C)C2CCC3[C@@H]4C(OC(C)=O)CC5CC(OC(C)=O)CC[C@]5(C)C4CC(OC(C)=O)[C@]23C)c2ccc(OC)cc2)cc1 (stereo partly specified) | – | > 100 µM | > 100 µM | – | > 100 µM | > 100 µM | > 100 µM | – | > 100 µM | > 100 µM | – | – | – | – |
| O=C(O)C1CCC(=O)N1C(=O)COc1cc(Cl)c(Cl)cc1Cl (stereo unspecified) | > 100 µM | – | > 100 µM | > 100 µM | > 100 µM | > 100 µM | > 100 µM | > 100 µM | – | – | – | – | – | – |
| COc1ccc(O[C@H](CO)C[C@@H]2COC(C)(C)O2)cc1 | > 100 µM | > 100 µM | > 100 µM | > 100 µM | > 100 µM | > 100 µM | > 100 µM | – | > 100 µM | – | – | – | – | – |
| COc1cc(C2c3cc4c(cc3[C@@H](Nc3ccc(F)cc3)C3COC[C@H]23)OCO4)cc(OC)c1O (stereo partly specified) | – | 20.7 µM | > 25 µM | – | 10.6 µM | 8.82 µM | > 25 µM | – | 15.1 µM | 4.21 µM | – | – | – | – |
| COc1cc2c(cc1OC)C1=C(C=O)c3ccc(OC)c(OC)c3C(O)N1CC2 (stereo unspecified) | > 100 µM | – | 29.7 µM | 29.4 µM | > 100 µM | > 100 µM | 64.1 µM | – | 46.6 µM | > 100 µM | – | – | – | – |
| CC1(C)N=C(/C(Cl)=[N+](/[O-])C(=O)c2ccc(Cl)cc2)C(C)(C)N1O | 72.6 µM | > 100 µM | 43.2 µM | – | > 100 µM | 43 µM | 34.2 µM | 31.4 µM | 40 µM | > 100 µM | – | – | – | – |
| CC(C)C(NCc1c2ccccc2[n+](C)c2ccccc12)C(=O)O (stereo unspecified) | 38.6 µM | 18.5 µM | 20.8 µM | 18.6 µM | 29.9 µM | 10.3 µM | 10.6 µM | 12.5 µM | – | – | – | – | – | – |
